Converted amounts (≈) assume the structure as drawn. The source made the active and inactive calls. The rule behind the calls is not given here.
Experiments:
Assay type in all cases: functional
[1] = tested on: Enterococcus hirae; test: Antimicrobial activity against Enterococcus hirae ATCC 10541 after 18 hrs by twofold dilution technique; settings: ATCC 10541, 18 h
[2] = tested on: Micrococcus luteus; test: Antimicrobial activity against Micrococcus luteus ATCC 9341 after 18 hrs by twofold dilution technique; settings: ATCC 9341, 18 h
[3] = tested on: Bacillus cereus; test: Antimicrobial activity against Bacillus cereus ATCC 11778 after 18 hrs by twofold dilution technique; settings: ATCC 11778, 18 h
[4] = tested on: Staphylococcus aureus; test: Antimicrobial activity against methicillin-resistant Staphylococcus aureus 143/6 by twofold dilution technique
[5] = tested on: Bacillus subtilis; test: Antimicrobial activity against Bacillus subtilis ATCC 6633 at 400 ug after 18 hrs by disk diffusion method; settings: ATCC 6633, 18 h, read-out: DIZ
[6] = tested on: Staphylococcus aureus; test: Antimicrobial activity against methicillin-resistant Staphylococcus aureus 217/7 by twofold dilution technique
[7] = tested on: Staphylococcus aureus; test: Antimicrobial activity against methicillin-resistant Staphylococcus aureus 141/6 by twofold dilution technique
[8] = tested on: Staphylococcus aureus; test: Antimicrobial activity against Staphylococcus aureus ATCC 25923 at 400 ug after 18 hrs by disk diffusion method; settings: ATCC 25923, 18 h, read-out: DIZ
[9] = tested on: Staphylococcus aureus; test: Antimicrobial activity against Methicillin susceptible Staphylococcus aureus 206/7 by twofold dilution technique
[10] = tested on: Staphylococcus aureus; test: Antimicrobial activity against Methicillin susceptible Staphylococcus aureus 238/7 by twofold dilution technique
[11] = tested on: Staphylococcus aureus; test: Antimicrobial activity against Staphylococcus aureus ATCC 6538 at 400 ug after 18 hrs by disk diffusion method; settings: ATCC 6538, 18 h, read-out: DIZ
[12] = tested on: Staphylococcus aureus; test: Antimicrobial activity against methicillin-resistant Staphylococcus aureus 144/6 by twofold dilution technique
[13] = tested on: Staphylococcus aureus; test: Antimicrobial activity against Staphylococcus aureus ATCC 29213 at 400 ug after 18 hrs by disk diffusion method; settings: ATCC 29213, 18 h, read-out: DIZ
[14] = tested on: Staphylococcus aureus; test: Antimicrobial activity against Staphylococcus aureus ATCC 25923 after 18 hrs by twofold dilution technique; settings: ATCC 25923, 18 h
[15] = tested on: Staphylococcus aureus; test: Antimicrobial activity against Staphylococcus aureus ATCC 6538 after 18 hrs by twofold dilution technique; settings: ATCC 6538, 18 h
[16] = tested on: Staphylococcus aureus; test: Antimicrobial activity against Staphylococcus aureus NCTC 4163 after 18 hrs by twofold dilution technique; settings: NCTC 4163, 18 h
[17] = tested on: Staphylococcus aureus; test: Antimicrobial activity against Methicillin susceptible Staphylococcus aureus 239/7 by twofold dilution technique
[18] = tested on: Staphylococcus aureus; test: Antimicrobial activity against methicillin-resistant Staphylococcus aureus 140/6 by twofold dilution technique
[19] = tested on: Staphylococcus aureus; test: Antimicrobial activity against Staphylococcus aureus ATCC 29213 after 18 hrs by twofold dilution technique; settings: ATCC 29213, 18 h
[20] = tested on: Bacillus cereus; test: Antimicrobial activity against Bacillus cereus ATCC 11778 at 400 ug after 18 hrs by disk diffusion method; settings: ATCC 11778, 18 h, read-out: DIZ
[21] = tested on: Staphylococcus aureus; test: Antimicrobial activity against Methicillin susceptible Staphylococcus aureus 237/7 by twofold dilution technique
[22] = tested on: Micrococcus luteus; test: Antimicrobial activity against Micrococcus luteus ATCC 10240 at 400 ug after 18 hrs by disk diffusion method; settings: ATCC 10240, 18 h, read-out: DIZ
[23] = tested on: Staphylococcus aureus; test: Antimicrobial activity against Staphylococcus aureus NCTC 4163 at 400 ug after 18 hrs by disk diffusion method; settings: NCTC 4163, 18 h, read-out: DIZ
[24] = tested on: Staphylococcus aureus; test: Antimicrobial activity against methicillin-resistant Staphylococcus aureus 146/6 by twofold dilution technique
[25] = tested on: Micrococcus luteus; test: Antimicrobial activity against Micrococcus luteus ATCC 9341 at 400 ug after 18 hrs by disk diffusion method
[26] = tested on: Enterococcus hirae; test: Antimicrobial activity against Enterococcus hirae ATCC 10541 at 400 ug after 18 hrs by disk diffusion method; settings: ATCC 10541, 18 h, read-out: DIZ
[27] = tested on: Staphylococcus aureus; test: Antimicrobial activity against Methicillin susceptible Staphylococcus aureus 212/7 by twofold dilution technique
[28] = tested on: Staphylococcus aureus; test: Antimicrobial activity against Methicillin susceptible Staphylococcus aureus 243/7 by twofold dilution technique
[29] = tested on: Staphylococcus aureus; test: Antimicrobial activity against methicillin-resistant Staphylococcus aureus 236/7 by twofold dilution technique
[30] = tested on: Staphylococcus aureus; test: Antimicrobial activity against methicillin-resistant Staphylococcus aureus 218/7 by twofold dilution technique
[31] = tested on: Staphylococcus aureus; test: Antimicrobial activity against methicillin-resistant Staphylococcus aureus 200/7 by twofold dilution technique
[32] = tested on: Staphylococcus aureus; test: Antimicrobial activity against Methicillin susceptible Staphylococcus aureus 208/7 by twofold dilution technique
[33] = tested on: Staphylococcus epidermidis; test: Antimicrobial activity against Staphylococcus epidermidis ATCC 12228 at 400 ug after 18 hrs by disk diffusion method; settings: ATCC 12228, 18 h, read-out: DIZ
[34] = tested on: Staphylococcus aureus; test: Antimicrobial activity against Methicillin susceptible Staphylococcus aureus 213/7 by twofold dilution technique
[35] = tested on: Staphylococcus aureus; test: Antimicrobial activity against Methicillin susceptible Staphylococcus aureus 207/7 by twofold dilution technique
[36] = tested on: Staphylococcus aureus; test: Antimicrobial activity against Methicillin susceptible Staphylococcus aureus 242/7 by twofold dilution technique
[37] = tested on: Bacillus subtilis; test: Antimicrobial activity against Bacillus subtilis ATCC 6633 after 18 hrs by twofold dilution technique; settings: ATCC 6633, 18 h
[38] = tested on: Staphylococcus epidermidis; test: Antimicrobial activity against Staphylococcus epidermidis ATCC 12228 by twofold dilution technique
[39] = tested on: Staphylococcus aureus; test: Antimicrobial activity against methicillin-resistant Staphylococcus aureus 136/6 by twofold dilution technique
[40] = tested on: Micrococcus luteus; test: Antimicrobial activity against Micrococcus luteus ATCC 10240 by twofold dilution technique

| Compound | MIC [1] | MIC [2] | MIC [3] | MIC [4] | zone of inhibition at 400 µg/disc [5] | MIC [6] | MIC [7] | zone of inhibition at 400 µg/disc [8] | MIC [9] | MIC [10] | zone of inhibition at 400 µg/disc [11] | MIC [12] | zone of inhibition at 400 µg/disc [13] | MIC [14] | MIC [15] | MIC [16] | MIC [17] | MIC [18] | MIC [19] | zone of inhibition at 400 µg/disc [20] | other results |
| --- | --- | --- | --- | --- | --- | --- | --- | --- | --- | --- | --- | --- | --- | --- | --- | --- | --- | --- | --- | --- | --- |
| Cc1cc2c(C(C)C)c(O)c(O)c(C=O)c2c(O)c1-c1c(C)cc2c(C(C)C)c(O)c(O)c(C=O)c2c1O [GOSSYPOL] | 25 mg/L (≈ 48.2 µM) | 25 mg/L (≈ 48.2 µM) | 25 mg/L (≈ 48.2 µM) | 50 mg/L (≈ 96.4 µM) | 15 mm | 50 mg/L (≈ 96.4 µM) | 50 mg/L (≈ 96.4 µM) | 15 mm | 25 mg/L (≈ 48.2 µM) | 25 mg/L (≈ 48.2 µM) | 14 mm | 50 mg/L (≈ 96.4 µM) | 15 mm | 25 mg/L (≈ 48.2 µM) | 12.5 mg/L (≈ 24.1 µM) | 50 mg/L (≈ 96.4 µM) | 25 mg/L (≈ 48.2 µM) | 50 mg/L (≈ 96.4 µM) | 12.5 mg/L (≈ 24.1 µM) | 15 mm | MIC [21]: 25 mg/L (≈ 48.2 µM); zone of inhibition at 400 µg/disc [22]: 16 mm; zone of inhibition at 400 µg/disc [23]: 16 mm; MIC [24]: 50 mg/L (≈ 96.4 µM); zone of inhibition at 400 µg/disc ([25]; ATCC 9341, 18 h, read-out: DIZ): 12 mm; zone of inhibition at 400 µg/disc [26]: 14 mm; MIC [27]: 50 mg/L (≈ 96.4 µM); MIC [28]: 25 mg/L (≈ 48.2 µM); MIC [29]: 50 mg/L (≈ 96.4 µM); MIC [30]: 50 mg/L (≈ 96.4 µM); MIC [31]: 50 mg/L (≈ 96.4 µM); MIC [32]: 50 mg/L (≈ 96.4 µM); zone of inhibition at 400 µg/disc [33]: 16 mm; MIC [34]: 50 mg/L (≈ 96.4 µM); MIC [35]: 50 mg/L (≈ 96.4 µM); MIC [36]: 12.5 mg/L (≈ 24.1 µM); MIC [37]: 100 mg/L (≈ 193 µM); MIC [38]: 100 mg/L (≈ 193 µM); MIC [39]: 50 mg/L (≈ 96.4 µM); MIC [40]: 50 mg/L (≈ 96.4 µM) |
| Cc1cc2c(c(O)c1-c1c(C)cc3c(c1O)/C(=C/NCCC(=O)N[C@@H](Cc1c[nH]cn1)C(=O)O)C(=O)C(O)=C3C(C)C)/C(=C/NCCC(=O)N[C@@H](Cc1c[nH]cn1)C(=O)O)C(=O)C(O)=C2C(C)C | 50 mg/L (≈ 53.5 µM) | 50 mg/L (≈ 53.5 µM) | 50 mg/L (≈ 53.5 µM) | 100 mg/L (≈ 107 µM) | 13 mm | 100 mg/L (≈ 107 µM) | 100 mg/L (≈ 107 µM) | 15 mm | 50 mg/L (≈ 53.5 µM) | 50 mg/L (≈ 53.5 µM) | 15 mm | 100 mg/L (≈ 107 µM) | 13 mm | 50 mg/L (≈ 53.5 µM) | 25 mg/L (≈ 26.7 µM) | 50 mg/L (≈ 53.5 µM) | 100 mg/L (≈ 107 µM) | 100 mg/L (≈ 107 µM) | 25 mg/L (≈ 26.7 µM) | 14 mm | MIC [21]: 50 mg/L (≈ 53.5 µM); zone of inhibition at 400 µg/disc [22]: 16 mm; zone of inhibition at 400 µg/disc [23]: 15 mm; MIC [24]: 50 mg/L (≈ 53.5 µM); diameter of the inhibition zone (DIZ) [25]: inactive; zone of inhibition at 400 µg/disc [26]: 12 mm; MIC [27]: 100 mg/L (≈ 107 µM); MIC [28]: 100 mg/L (≈ 107 µM); MIC [29]: 50 mg/L (≈ 53.5 µM); MIC [30]: 100 mg/L (≈ 107 µM); MIC [31]: 100 mg/L (≈ 107 µM); MIC [32]: 100 mg/L (≈ 107 µM); zone of inhibition at 400 µg/disc [33]: 14 mm; MIC [34]: 100 mg/L (≈ 107 µM); MIC [35]: 100 mg/L (≈ 107 µM); MIC [36]: 25 mg/L (≈ 26.7 µM); MIC [37]: 200 mg/L (≈ 214 µM); MIC [38]: 200 mg/L (≈ 214 µM); MIC [39]: 25 mg/L (≈ 26.7 µM); MIC [40]: 50 mg/L (≈ 53.5 µM) |

From ChEMBL document CHEMBL1155271, “Synthesis, crystal structures and antibacterial activity studies of aza-derivatives of phytoalexin from cotton plant--gossypol” (2009)
